Results on 1 molecule are retold here after patent US20240000765A1, “COMBINATION TREATMENT OF LIVER DISORDERS” (Terns Pharmaceuticals, Inc., priority 2020, published 2024).

One data set has as its target T1, THRβ (Homo sapiens, UniProt P10828).
T1 sequence (P10828 1-461): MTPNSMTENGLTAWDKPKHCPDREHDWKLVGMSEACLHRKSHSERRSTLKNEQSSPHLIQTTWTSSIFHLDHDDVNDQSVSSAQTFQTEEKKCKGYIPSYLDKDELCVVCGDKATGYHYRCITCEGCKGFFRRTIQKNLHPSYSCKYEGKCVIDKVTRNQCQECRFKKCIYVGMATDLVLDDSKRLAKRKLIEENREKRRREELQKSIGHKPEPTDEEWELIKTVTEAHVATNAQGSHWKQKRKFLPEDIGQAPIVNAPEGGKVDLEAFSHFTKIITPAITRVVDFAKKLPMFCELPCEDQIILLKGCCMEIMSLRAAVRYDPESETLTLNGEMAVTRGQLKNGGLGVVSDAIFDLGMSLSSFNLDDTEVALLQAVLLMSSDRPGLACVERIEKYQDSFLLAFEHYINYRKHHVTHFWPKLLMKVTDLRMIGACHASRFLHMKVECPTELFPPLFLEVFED
As to the kind of experiment: Binding activity to the thyroxine receptor beta. The following applies: ratio of binding IC50.

In data set [1] the target is T2, THRα (Homo sapiens, UniProt P10827).
T2 sequence (P10827 1-410 isoform P10827-2): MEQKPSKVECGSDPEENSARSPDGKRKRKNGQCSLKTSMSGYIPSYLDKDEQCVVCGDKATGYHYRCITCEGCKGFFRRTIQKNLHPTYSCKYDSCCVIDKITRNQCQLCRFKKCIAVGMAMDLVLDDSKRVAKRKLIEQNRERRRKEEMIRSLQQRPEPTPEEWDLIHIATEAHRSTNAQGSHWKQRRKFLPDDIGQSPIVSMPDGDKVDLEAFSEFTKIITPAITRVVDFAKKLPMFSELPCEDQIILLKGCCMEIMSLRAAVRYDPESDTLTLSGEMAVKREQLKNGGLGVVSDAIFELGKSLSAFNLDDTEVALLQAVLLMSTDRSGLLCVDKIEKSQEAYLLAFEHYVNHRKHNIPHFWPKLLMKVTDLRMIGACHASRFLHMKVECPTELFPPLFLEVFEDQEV
As to the kind of experiment: Binding activity to THRα. The following applies: read-out: IC50 THRα binding force.

Data set [2] addresses T2, THRα. Nature of the data set: Agonistic activity toward THRα. It is filed as biochemical.
Data set [3] is described as follows: Pharmacokinetic evaluation in rats, intragastric infusion. It is filed as in vivo. The settings on record: SD rats, intragastric 2 mg/kg.
Experimental: Drug Preparation: a certain amount of the drug was taken and added into a 2% Klucel LF+0.1% Tween 80 aqueous solution, to prepare a clear solution or a uniform suspension.
Dosage: SD rats were fasted overnight and given the drug by intragastric infusion at an administrated dose of 2 mg/kg and an administrated volume of 10 mL/kg each.
Operation: rats were dosed by intragastric infusion with the compounds. […] The heparinized sample tubes were then stored at −20° C., and the rats were allowed to eat food 2 h after the dosage.
Determination of contents of the compounds to be tested in the plasma of rats after intragastric infusion of the drugs at different concentrations: the plasma samples were thawed at room temperature, 50 μL each was taken and added into 130 μL of an internal standard working solution (1000 ng/mL, acetonitrile, tolbutamide), and the mixture was whirled for about 1 min and then centrifugated at 4° C. and 13000 rpm for 10 min. 50 μL of the supernatant was taken and mixed with 100 μL of 50% acetonitrile water, and then introduced for LC/MS/MS analysis.
For the next data set, the system named is mouse NASH model. As to the kind of experiment: Mouse NASH model (high fat diet + CCl4), Compound 2. The data set is classed as in vivo, C57BL/6J mice. As for the experimental part: C57BL/6J mice were fed a high fat diet for 10 weeks to induce obesity (>38 g BW). Obese mice were injected intraperitoneally (i.p.) twice a week for four weeks with 0.5 μl/g 25% CCl4 (formulated in olive oil) to induce fibrosis, and one group of normal BW mice were injected i.p. twice a week for four weeks with olive oil to serve as a healthy control. During the same dosing period, obese mice were fed orally once a day for 28 days with vehicle or varying doses of Compound 2. On CCl4 dosing days, CCl4 was administered at 4 hours post compound or vehicle dosing. On day 27, all animals were fasted for about 16 hours before terminal euthanasia. On day 28, all animals were sacrificed and various biological parameters were analyzed. Total body, liver, heart and brain weight were measured and changes in liver and heart weight were normalized using brain weight. […] Liver tissue histology was analyzed for effects of Compound 2 on steatosis, inflammation and fibrosis. […] Liver samples were collected for whole transcriptome analysis by RNA sequencing (RNAseq). RNAseq library (n=5 per group) preparation and sequencing was performed using Illumina standard protocols. Alignment of sequencing reads was performed using STAR aligner software and read counts were estimated using RSEM. Differentially expressed genes (compared to vehicle-treated NASH control mice) were determined using EdgeR software. Gene ontology analysis was performed using Advaita software with fold-change and adjusted p-value cutoffs of >1.5 and <0.05, respectively. Gene ontologies were derived from the Gene Ontology Consortium database (2019 Apr. 26) (Ashbumer et al., Gene ontology: Tool for the unification of biology. Nature Genetics 25(1): 25-9 (2000); Gene Ontology Consortium, Creating the Gene Ontology Resource: Design and Implementation. Genome Research 11: 1425-1433 (2001)).

Where only a bound is given, the exact number is not on record here.

Regarding `N#Cc1nn(-c2cc(Cl)c(Oc3n[nH]c(=O)c4ccccc34)c(Cl)c2)c(=O)[nH]c1=O` [Compound 2], at THRβ, the “THRα/β selectivity (factor)” value is reported as more than 58.8. Moreover, the half-inhibitory concentration (IC50) – broadly, the concentration needed to halve the response being measured – at THRα [1] was more than 10 µM. Besides, on THRα [2], it took 3.98 µM to reach a half-maximal effect (EC50). Also, in data set [3], the Curve area came to 24790 ± 3704 ng·h/mL, the “Peak blood drug concentration” value worked out at 2007 ± 106 ng/mL and the Time to peak was determined as 4.67 ± 1.15 h. Moreover, the “liver fibrosis (histology)” value with mouse NASH model (3 and 10 mpk) is “significantly reduced”. Besides, in the data set on mouse NASH model (all doses tested), the “liver steatosis (histology)” value was “significantly reduced”, the “serum ALT” value is reported as “significantly reduced”, the serum total cholesterol entry is given as “significantly reduced” and the serum triglycerides result is recorded as “significantly reduced”. Moreover, the “expression of genes associated with collagen extracellular matrix and hepatic stellate cell activation relative to NASH control” value in the data set on mouse NASH model (liver RNAseq) is reported as “reducing their expression levels”. In the data set on mouse NASH model (oral once a day, 28 days), the heart/brain weight result is on record as “no effect”, the “liver inflammation (histology)” value is reported as “trend in inflammation reduction”, the liver/brain weight entry is reported as “significantly reduced” and the total body weight result is “no effect”.
